Each compound was assayed against human TYK2 (JH2domain-pseudokinase) (Homo sapiens (Human), UniProt P29597) (assay: TYK2 JH2 Domain Binding Assay (KINOMEscan, DiscoveRx)). Conditions: 11-point dilution, duplicate.
Method in brief: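 Kd from duplicate 11-point 3-fold dilutions starting at 30,000 nM, fitted by Hill equation with slope fixed at −1. Compounds (final 0.9% DMSO) displace DNA-tagged HEK293-expressed TYK2 JH2 fusion (<0.1 nM) from ligand-coated beads over 1 h at room temperature; eluted kinase read by qPCR.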

Chain of human TYK2 (JH2domain-pseudokinase) (P29597 556-888): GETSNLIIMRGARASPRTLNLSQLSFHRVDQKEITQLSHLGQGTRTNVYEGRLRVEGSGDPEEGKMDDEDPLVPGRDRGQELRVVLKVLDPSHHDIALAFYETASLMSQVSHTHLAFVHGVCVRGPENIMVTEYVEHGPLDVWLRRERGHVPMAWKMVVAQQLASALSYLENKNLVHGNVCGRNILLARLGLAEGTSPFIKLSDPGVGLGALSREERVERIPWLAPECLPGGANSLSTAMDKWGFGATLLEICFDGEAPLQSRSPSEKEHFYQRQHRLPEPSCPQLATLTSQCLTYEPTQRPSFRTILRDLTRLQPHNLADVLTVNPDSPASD

Kd [nM]	Compound
1 to 10	CN(c1cc(-c2cnn(C)c2)ccc1Nc1cc(NC(=O)[C@H]2CC2(F)F)nc2[nH]c(C(F)F)nc12)S(C)(=O)=O [I-231, (R)—N-(2-(difluoromethyl)-7-((4-(1-methyl-1H-pyrazol-4-yl)-2-(N-methylmethylsulfonamido)phenyl)amino)-3H-imidazo[4,5-b]pyridin-5-yl)-2,2-difluorocyclopropane-1-carboxamide]
0.5 to 1	CN(c1cc(-c2cnn(C)c2)ccc1Nc1cc(NC(=O)[C@@H]2CC2(F)F)nc2[nH]c(C(F)F)nc12)S(C)(=O)=O [I-230, (S)—N-(2-(difluoromethyl)-7-((4-(1-methyl-1H-pyrazol-4-yl)-2-(N-methylmethylsulfonamido)phenyl)amino)-3H-imidazo[4,5-b]pyridin-5-yl)-2,2-difluorocyclopropane-1-carboxamide]
< 0.1	CN(c1cc(-c2cnn(C)c2)ccc1Nc1cc(NC(=O)[C@@H]2C[C@@H]2F)nc2[nH]c(C(F)F)nc12)S(C)(=O)=O (stereo in doubt) [I-235, (1S,2S)—N-(2-(difluoromethyl)-7-((4-(1-methyl-1H-pyrazol-4-yl)-2-(N-methylmethylsulfonamido)phenyl)amino)-3H-imidazo[4,5-b]pyridin-5-yl)-2-fluorocyclopropane-1-carboxamide]
0.1 to 0.5	CN=S(C)(=O)c1ccccc1Nc1cc(NC(=O)C2CC2)nc2[nH]c(C(F)F)nc12 (stereo not drawn) [I-362]

Compound	Kd [nM]
Cc1nc(-c2ccc(Nc3cc(Nc4cccc(C#N)n4)nc4[nH]c(C(F)F)nc34)c(S(C)(=O)=O)c2)sc1C [I-507, 6-((2-(difluoromethyl)-7-((4-(4,5-dimethylthiazol-2-yl)-2-(methylsulfonyl)phenyl)amino)-3H-imidazo[4,5-b]pyridin-5-yl)amino)picolinonitrile]	1 to 10
COc1c(C#N)cccc1Nc1cc(NC(=O)C2CC2)nc2[nH]c(C)nc12 [I-105, N-(7-((3-cyano-2-methoxyphenyl)amino)-2-methyl-3H-imidazo[4,5-b]pyridin-5-yl)cyclopropanecarboxamide]	> 10
